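96-well plates; 48 h exposure; 5 concentrations. Endpoints by linear interpolation between flanking doses. Not reached: highest tested concentration assigned. GI50 is the concentration that inhibits growth by half. At the TGI there is no net growth.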
Columns and labels:
Test in all cases: NCI tumour cell line growth inhibition, 48 h
786-0 renal = system: 786-0 renal
A498 renal = system: A498 renal
A549 NSCLC = system: A549 NSCLC
ACHN renal = system: ACHN renal
BT-549 breast = system: BT-549 breast
CAKI-1 renal = system: CAKI-1 renal
CCRF-CEM leukemia = system: CCRF-CEM leukemia
COLO 205 colon = system: COLO 205 colon
DU-145 prostate = system: DU-145 prostate
EKVX NSCLC = system: EKVX NSCLC
HCC-2998 colon = system: HCC-2998 colon
HCT-15 colon = system: HCT-15 colon
HL-60(TB) leukemia = system: HL-60(TB) leukemia
HOP-62 NSCLC = system: HOP-62 NSCLC
HOP-92 NSCLC = system: HOP-92 NSCLC
HS 578T breast = system: HS 578T breast
HT29 colon = system: HT29 colon
IGROV1 ovarian = system: IGROV1 ovarian
K-562 leukemia = system: K-562 leukemia
KM12 colon = system: KM12 colon
LOX IMVI melanoma = system: LOX IMVI melanoma
M14 melanoma = system: M14 melanoma
MALME-3M melanoma = system: MALME-3M melanoma
MCF7 breast = system: MCF7 breast
MDA-MB-231 breast = system: MDA-MB-231 breast
MDA-MB-435 = system: MDA-MB-435
MDA-MB-468 breast = system: MDA-MB-468 breast
MOLT-4 leukemia = system: MOLT-4 leukemia
NCI-H226 lung = system: NCI-H226 lung
NCI-H23 lung = system: NCI-H23 lung
NCI-H460 lung = system: NCI-H460 lung
NCI-H522 lung = system: NCI-H522 lung
NCI/ADR-RES ovarian = system: NCI/ADR-RES ovarian
OVCAR-3 ovarian = system: OVCAR-3 ovarian
OVCAR-4 ovarian = system: OVCAR-4 ovarian
OVCAR-5 ovarian = system: OVCAR-5 ovarian
OVCAR-8 ovarian = system: OVCAR-8 ovarian
PC-3 prostate = system: PC-3 prostate
RPMI-8226 leukemia = system: RPMI-8226 leukemia
RXF 393 renal = system: RXF 393 renal
SF-268 CNS = system: SF-268 CNS
SF-295 CNS = system: SF-295 CNS
SF-539 CNS = system: SF-539 CNS
SK-MEL-2 melanoma = system: SK-MEL-2 melanoma
SK-MEL-28 melanoma = system: SK-MEL-28 melanoma
SK-MEL-5 melanoma = system: SK-MEL-5 melanoma
SK-OV-3 ovarian = system: SK-OV-3 ovarian
SN12C renal = system: SN12C renal
SNB-19 CNS = system: SNB-19 CNS
SNB-75 CNS = system: SNB-75 CNS
SR leukemia = system: SR leukemia
SW-620 colon = system: SW-620 colon
T-47D breast = system: T-47D breast
TK-10 renal = system: TK-10 renal
U251 CNS = system: U251 CNS
UACC-257 melanoma = system: UACC-257 melanoma
UACC-62 melanoma = system: UACC-62 melanoma
UO-31 renal = system: UO-31 renal

COc1ccc(-c2nc3ccccc3n2CC(=O)N=Nc2c(O)[nH]c3ccc(OC)cc23)cc1
GI50 (786-0 renal): 1.77 µM
TGI (786-0 renal): 4.26 µM
GI50 (A498 renal): 15.4 µM
TGI (A498 renal): 29.6 µM
GI50 (A549 NSCLC): 4.51 µM
TGI (A549 NSCLC): 17.5 µM
GI50 (ACHN renal): 2.39 µM
TGI (ACHN renal): 6.62 µM
GI50 (BT-549 breast): 2.52 µM
TGI (BT-549 breast): 6.47 µM
GI50 (CAKI-1 renal): 2.77 µM
TGI (CAKI-1 renal): 8.75 µM
GI50 (CCRF-CEM leukemia): 27.5 µM
TGI (CCRF-CEM leukemia): > 100 µM
GI50 (COLO 205 colon): 16.1 µM
TGI (COLO 205 colon): 33.9 µM
GI50 (DU-145 prostate): 4.53 µM
TGI (DU-145 prostate): 15.5 µM
GI50 (EKVX NSCLC): 11.2 µM
TGI (EKVX NSCLC): 28.2 µM
GI50 (HCC-2998 colon): 6.54 µM
TGI (HCC-2998 colon): 19 µM
GI50 (HCT-15 colon): 3.01 µM
TGI (HCT-15 colon): 11.7 µM
GI50 (HL-60(TB) leukemia): 2.83 µM
TGI (HL-60(TB) leukemia): 13.5 µM
GI50 (HOP-62 NSCLC): 17.5 µM
TGI (HOP-62 NSCLC): 35.1 µM
GI50 (HOP-92 NSCLC): 8.19 µM
TGI (HOP-92 NSCLC): 26.4 µM
GI50 (HS 578T breast): 6.39 µM
TGI (HS 578T breast): 32.3 µM
GI50 (HT29 colon): 2.17 µM
TGI (HT29 colon): 4.9 µM
GI50 (IGROV1 ovarian): 12.3 µM
TGI (IGROV1 ovarian): 25.4 µM
GI50 (K-562 leukemia): 4.1 µM
TGI (K-562 leukemia): 95.8 µM
GI50 (KM12 colon): 15.2 µM
TGI (KM12 colon): 33.8 µM
GI50 (LOX IMVI melanoma): 2.02 µM
TGI (LOX IMVI melanoma): 4.76 µM
GI50 (M14 melanoma): 3.15 µM
TGI (M14 melanoma): 11 µM
GI50 (MALME-3M melanoma): 3.28 µM
TGI (MALME-3M melanoma): 12.7 µM
GI50 (MCF7 breast): 2.01 µM
TGI (MCF7 breast): 4.72 µM
GI50 (MDA-MB-231 breast): 5.76 µM
TGI (MDA-MB-231 breast): 19.2 µM
GI50 (MDA-MB-435): 4.09 µM
TGI (MDA-MB-435): 15.1 µM
GI50 (MDA-MB-468 breast): 2 µM
TGI (MDA-MB-468 breast): 5.17 µM
GI50 (MOLT-4 leukemia): 5.71 µM
TGI (MOLT-4 leukemia): 36.5 µM
GI50 (NCI-H226 lung): 1.8 µM
TGI (NCI-H226 lung): 3.99 µM
GI50 (NCI-H23 lung): 10.4 µM
TGI (NCI-H23 lung): 23.5 µM
GI50 (NCI-H460 lung): 4.22 µM
TGI (NCI-H460 lung): 15.4 µM
GI50 (NCI-H522 lung): 6.18 µM
TGI (NCI-H522 lung): 22.9 µM
GI50 (NCI/ADR-RES ovarian): 2.02 µM
TGI (NCI/ADR-RES ovarian): 5.18 µM
GI50 (OVCAR-3 ovarian): 12.5 µM
TGI (OVCAR-3 ovarian): 26.6 µM
GI50 (OVCAR-4 ovarian): 11.6 µM
TGI (OVCAR-4 ovarian): 30 µM
GI50 (OVCAR-5 ovarian): 13.8 µM
TGI (OVCAR-5 ovarian): 33.6 µM
GI50 (OVCAR-8 ovarian): 2.3 µM
TGI (OVCAR-8 ovarian): 5.85 µM
GI50 (PC-3 prostate): 12.1 µM
TGI (PC-3 prostate): 42.3 µM
GI50 (RPMI-8226 leukemia): 13.2 µM
TGI (RPMI-8226 leukemia): > 100 µM
GI50 (RXF 393 renal): 1.87 µM
TGI (RXF 393 renal): 3.59 µM
GI50 (SF-268 CNS): 13.3 µM
TGI (SF-268 CNS): 31.6 µM
GI50 (SF-295 CNS): 14.3 µM
TGI (SF-295 CNS): 34.7 µM
GI50 (SF-539 CNS): 2.95 µM
TGI (SF-539 CNS): 9.35 µM
GI50 (SK-MEL-2 melanoma): 17.6 µM
TGI (SK-MEL-2 melanoma): 33.6 µM
GI50 (SK-MEL-28 melanoma): 4.4 µM
TGI (SK-MEL-28 melanoma): 19.9 µM
GI50 (SK-MEL-5 melanoma): 5.37 µM
TGI (SK-MEL-5 melanoma): 18.3 µM
GI50 (SK-OV-3 ovarian): 15.6 µM
TGI (SK-OV-3 ovarian): 30.8 µM
GI50 (SN12C renal): 6.02 µM
TGI (SN12C renal): 19.3 µM
GI50 (SNB-19 CNS): 15.3 µM
TGI (SNB-19 CNS): 29.5 µM
GI50 (SNB-75 CNS): 7.41 µM
TGI (SNB-75 CNS): 22.1 µM
GI50 (SR leukemia): 2.52 µM
TGI (SR leukemia): 25.7 µM
GI50 (SW-620 colon): 4.46 µM
TGI (SW-620 colon): 19.7 µM
GI50 (T-47D breast): 3.46 µM
TGI (T-47D breast): 16.3 µM
GI50 (TK-10 renal): 10.9 µM
TGI (TK-10 renal): 23.1 µM
GI50 (U251 CNS): 12.5 µM
TGI (U251 CNS): 25.3 µM
GI50 (UACC-257 melanoma): 2.56 µM
TGI (UACC-257 melanoma): 7.16 µM
GI50 (UACC-62 melanoma): 11.2 µM
TGI (UACC-62 melanoma): 23.3 µM
GI50 (UO-31 renal): 11.2 µM
TGI (UO-31 renal): 23.2 µM

From PubChem BioAssay (NCI)
